According to paper PMC7182039 (Journal of medicinal chemistry, 2020):
Values joined by “and” are separate entries in the source; they are usually repeats but may differ in a detail not shown here. Equal entries are not always repeated. Where two headings read alike, the source gives them in different places. Marks after values point to notes of the source that are not given here.

What was measured:
[1] = In vitro metabolic stability in mouse liver microsomes; assay type: in vitro ADME; settings: 37 °C, 0.4 mg/mL protein, NADPH
[2] = Kinetic solubility by nephelometry; assay type: physicochemical; settings: for sol6.5 / sol2.0: kinetic solubility, 1% DMSO, 30 min; for sol6.5: pH 6.5 phosphate buffer; for sol2.0: 0.01 M HCl (approx. pH 2.0)
kidney (HEK 293T) = assay: Cytotoxicity screen; assay type: cell-based, human; settings: 24 h, Alamar blue, data not shown
osteosarcoma (U-2 OS) = assay: Cytotoxicity screen; assay type: cell-based, human; settings: 24 h, Alamar blue, data not shown
[3] = In vitro metabolic stability in human liver microsomes; assay type: in vitro ADME; settings: for h CLint: 37 °C, 0.4 mg/mL protein, NADPH
hepatocyte (HC-04) = assay: Cytotoxicity screen; assay type: cell-based, human; settings: HC-04, 24 h, Alamar blue; data not shown
[4] = test system: foreskin fibroblast (HFF); assay: Cytotoxicity screen; assay type: cell-based, human; settings: 24 h, Alamar blue, data not shown
schistosomes = settings: cited from earlier work
S. mansoni = settings: adult infection, mice, single 400 mg/kg oral dose, cited from earlier work
[5] = test system: juvenile stage of S. mansoni; settings: mice, single 200 mg/kg oral dose; cited from earlier work

| SMILES | m CLint [1] | solubility ([2]; DMSO) [µg/mL] | cytotoxicity: concentration without inhibition of the cell line (kidney (HEK 293T)) [µM] | cytotoxicity: concentration without inhibition of the cell line (osteosarcoma (U-2 OS)) [µM] | h CLint [3] | cytotoxicity: concentration without inhibition of the cell line (hepatocyte (HC-04)) [µM] | cytotoxicity: concentration without inhibition of the cell line [4] [µM] | antischistosomal activity (schistosomes) | S. mansoni WBR (%) 1 × 400 mg/kg po (S. mansoni) | S. mansoni WBR (%) 1 × 200 mg/kg po [5] | sol6.5 [2] [µg/mL] | S. mansoni WBR (%) 1 × 400 mg/kg po (S. mansoni; 400 mg/kg) | sol2.0 [2] [µg/mL] | conversion to 2 in human liver microsomes [3] |
| --- | --- | --- | --- | --- | --- | --- | --- | --- | --- | --- | --- | --- | --- | --- |
| O=C(O)CN1CCC(Oc2ccc([C@H]3CC[C@]4(CC3)OOC3(O4)C4CC5CC(C4)CC3C5)cc2)CC1 (some centres unmarked) [Compound 16] | <7/<7 μL/(min mg) protein | < 1000 | > 50 | > 50 | <7/<7 μL/(min mg) protein | > 50 | > 50 |  |  |  |  |  |  |  |
| c1cc([C@H]2CC[C@]3(CC2)OO[C@]2(O3)C3CC4CC(C3)CC2C4)ccc1OCCN1CCOCC1 [Compound 1] |  |  |  |  |  |  |  | no antischistosomal activity |  |  |  |  |  |  |
| O=C(O)c1ccc([C@H]2CC[C@]3(CC2)OOC2(O3)C3CC4CC(C3)CC2C4)cc1 (some centres unmarked) [Compound 3] |  |  |  |  |  |  |  |  | 74^i,j % | 100% and 84^a % |  |  |  |  |
| O=C(O)COc1ccc([C@H]2CC[C@]3(CC2)OOC2(O3)C3CC4CC(C3)CC2C4)cc1 (some centres unmarked) [Compound 2] |  |  |  |  |  |  |  |  |  | 100^a % | 6.3 to 12.5 | 80^i,j % |  |  |
| O=C(O)COc1ccc([C@H]2CC[C@]3(CC2)OOC2(O3)C3CC4CC(C3)CC2C4)cc1Cl (stereo partly drawn) [Compound 7, cis-Adamantane-2-spiro-3 ′−8 ′-[3-chloro-4-(carboxymethoxy)-phenyl]-1′,2′,4′-trioxaspiro[4.5]decan] | 8 μL/(min mg) protein |  | > 50 | > 50 | < 7 μL/(min mg) protein | > 50 | > 50 |  |  |  | 3.1 to 6.3 |  |  |  |
| CS(=O)(=O)O.O=C(O)CNCc1ccc([C@H]2CC[C@]3(CC2)OOC2(O3)C3CC4CC(C3)CC2C4)cc1 (stereo partly drawn) [Compound 17, cis-Adamantane-2-spiro-3′−8′-[4-[[(carboxymethyi)amino]-methyl]phenyi]-1′,2′,4′-trioxaspiro[4.5]decane mesyiate] | 10 μL/(min mg) protein |  | > 50 | > 50 | < 7 μL/(min mg) protein | > 50 | > 50 |  |  |  | < 6.3 |  | < 12.5 |  |
| O=C(O)CNC(=O)COc1ccc([C@H]2CC[C@]3(CC2)OOC2(O3)C3CC4CC(C3)CC2C4)cc1 (stereo partly drawn) [Compound 14, cis-Adamantane-2-spiro-3′−8′-[4-[2-[(carboxymethyl)amino]-2-oxoethoxy]phenyl]-1′,2′,4′-trioxaspiro[4.5]decane] |  |  | > 50 | > 50 | <7/CND^a,b μL/(min mg) protein | > 50 | > 50 |  |  |  |  |  | 12.5 to 25 | converted to 2 in human |
